This note sets out measurements from ChEMBL document CHEMBL5465560, “Selectivity Literature for EUbOPEN Chemogenomic Library” (2024).

Where only a bound is given, the exact number is not on record here.

The target in assay [1] is T1, Casein kinase I isoform alpha-like (Homo sapiens) (UniProt Q8N752).
T1 sequence (whole entry): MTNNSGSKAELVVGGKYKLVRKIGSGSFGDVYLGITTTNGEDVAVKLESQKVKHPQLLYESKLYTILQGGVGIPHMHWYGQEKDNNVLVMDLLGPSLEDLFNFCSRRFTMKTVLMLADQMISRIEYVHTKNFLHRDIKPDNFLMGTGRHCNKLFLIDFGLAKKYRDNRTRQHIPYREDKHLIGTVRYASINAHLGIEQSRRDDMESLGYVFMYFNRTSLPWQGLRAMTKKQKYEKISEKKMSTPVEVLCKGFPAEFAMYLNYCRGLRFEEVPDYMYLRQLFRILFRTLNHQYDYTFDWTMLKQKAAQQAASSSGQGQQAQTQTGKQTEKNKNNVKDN
The conditions noted are these: at 10 µM.

The target of assay [2] is Ephrin type-A receptor 5 (Homo sapiens) (UniProt P54756). To be noted: at 10 µM.
For assay [3], the target named is T2, Dual specificity protein kinase TTK (Homo sapiens) (UniProt P33981).
T2 sequence (whole entry): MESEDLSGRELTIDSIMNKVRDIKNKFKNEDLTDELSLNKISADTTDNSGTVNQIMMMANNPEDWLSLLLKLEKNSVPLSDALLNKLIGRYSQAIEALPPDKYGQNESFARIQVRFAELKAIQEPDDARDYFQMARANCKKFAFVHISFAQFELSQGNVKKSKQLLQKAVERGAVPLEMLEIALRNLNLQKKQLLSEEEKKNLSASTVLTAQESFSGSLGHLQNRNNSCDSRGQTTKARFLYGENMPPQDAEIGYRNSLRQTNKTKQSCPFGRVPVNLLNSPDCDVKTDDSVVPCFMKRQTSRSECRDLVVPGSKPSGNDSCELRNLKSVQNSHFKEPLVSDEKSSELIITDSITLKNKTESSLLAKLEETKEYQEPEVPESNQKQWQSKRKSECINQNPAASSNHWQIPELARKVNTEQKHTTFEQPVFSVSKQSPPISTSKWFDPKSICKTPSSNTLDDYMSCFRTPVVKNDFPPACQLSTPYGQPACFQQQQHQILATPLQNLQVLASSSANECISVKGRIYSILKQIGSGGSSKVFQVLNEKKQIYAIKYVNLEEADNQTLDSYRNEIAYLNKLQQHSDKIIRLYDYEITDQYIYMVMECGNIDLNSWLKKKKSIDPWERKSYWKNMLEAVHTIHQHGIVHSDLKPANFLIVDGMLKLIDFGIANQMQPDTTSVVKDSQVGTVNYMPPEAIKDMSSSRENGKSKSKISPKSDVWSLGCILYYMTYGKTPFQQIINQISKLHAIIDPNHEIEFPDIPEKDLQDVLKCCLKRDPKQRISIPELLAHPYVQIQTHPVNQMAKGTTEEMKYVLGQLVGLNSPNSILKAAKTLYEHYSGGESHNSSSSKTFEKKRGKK
In words: Selectivity interaction (KinomeScan (DiscoverX)) EUB0000092b TTK. The conditions noted are these: at 10 µM.

In assay [4] the target is Ribosomal protein S6 kinase alpha-6 (Homo sapiens, UniProt Q9UK32). Briefly: Selectivity interaction (KinomeScan (DiscoverX)) EUB0000092b RPS6KA6. The conditions noted are these: at 10 µM.
The target of assay [5] is T3, Serine/threonine-protein kinase 17B (Homo sapiens) (UniProt O94768).
T3 sequence (whole entry): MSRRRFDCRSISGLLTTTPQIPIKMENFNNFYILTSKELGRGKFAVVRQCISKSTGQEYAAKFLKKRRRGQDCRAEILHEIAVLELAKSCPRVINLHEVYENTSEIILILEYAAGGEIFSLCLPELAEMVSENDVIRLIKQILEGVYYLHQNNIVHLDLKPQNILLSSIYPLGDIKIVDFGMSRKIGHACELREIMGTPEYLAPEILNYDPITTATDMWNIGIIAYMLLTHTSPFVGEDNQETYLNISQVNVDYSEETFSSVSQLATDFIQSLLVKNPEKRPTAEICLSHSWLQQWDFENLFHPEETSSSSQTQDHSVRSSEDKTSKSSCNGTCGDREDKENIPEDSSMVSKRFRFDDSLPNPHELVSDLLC
Briefly: Selectivity interaction (LanthaScreen Eu Kinase Binding Assay) EUB0001632a STK17B. To be noted: at 10 µM. Background: In TR-FRET formats the signal depends on donor and acceptor labels being close together.

The target in assay [6] is Fibroblast growth factor receptor 1 (Homo sapiens, UniProt P11362). Briefly: Selectivity interaction (SelectScreen profiling (Invitrogen)) EUB0000607a FGFR1. The conditions noted are these: at 2 µM.
Assay [7] has as its target E3 ubiquitin-protein ligase TRIM33 (Homo sapiens) (UniProt Q9UPN9). Briefly: Selectivity interaction (Human bromodomain panel (DSF assay)) EUB0000233b TRIM33.

Ribosomal protein S6 kinase alpha-6, sequence (Q9UK32 whole entry): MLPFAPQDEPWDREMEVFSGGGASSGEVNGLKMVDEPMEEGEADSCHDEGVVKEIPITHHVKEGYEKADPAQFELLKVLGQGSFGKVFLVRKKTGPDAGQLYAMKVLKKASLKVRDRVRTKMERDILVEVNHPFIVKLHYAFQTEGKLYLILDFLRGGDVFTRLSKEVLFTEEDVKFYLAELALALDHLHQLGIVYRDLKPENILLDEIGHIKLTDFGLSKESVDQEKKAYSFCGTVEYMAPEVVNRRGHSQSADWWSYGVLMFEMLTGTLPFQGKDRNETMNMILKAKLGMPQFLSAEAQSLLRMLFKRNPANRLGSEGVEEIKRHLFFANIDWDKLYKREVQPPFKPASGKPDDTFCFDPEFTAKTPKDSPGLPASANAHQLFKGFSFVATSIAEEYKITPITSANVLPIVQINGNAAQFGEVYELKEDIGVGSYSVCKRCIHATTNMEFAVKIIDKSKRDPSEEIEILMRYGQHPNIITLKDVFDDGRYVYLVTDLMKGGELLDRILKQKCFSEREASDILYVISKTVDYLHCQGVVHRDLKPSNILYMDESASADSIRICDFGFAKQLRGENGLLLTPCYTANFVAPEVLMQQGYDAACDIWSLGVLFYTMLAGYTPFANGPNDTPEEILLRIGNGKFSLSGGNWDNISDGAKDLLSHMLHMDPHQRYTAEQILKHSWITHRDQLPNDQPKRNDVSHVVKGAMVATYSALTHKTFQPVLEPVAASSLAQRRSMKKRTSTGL
Ephrin type-A receptor 5 (Homo sapiens), sequence (P54756 whole entry): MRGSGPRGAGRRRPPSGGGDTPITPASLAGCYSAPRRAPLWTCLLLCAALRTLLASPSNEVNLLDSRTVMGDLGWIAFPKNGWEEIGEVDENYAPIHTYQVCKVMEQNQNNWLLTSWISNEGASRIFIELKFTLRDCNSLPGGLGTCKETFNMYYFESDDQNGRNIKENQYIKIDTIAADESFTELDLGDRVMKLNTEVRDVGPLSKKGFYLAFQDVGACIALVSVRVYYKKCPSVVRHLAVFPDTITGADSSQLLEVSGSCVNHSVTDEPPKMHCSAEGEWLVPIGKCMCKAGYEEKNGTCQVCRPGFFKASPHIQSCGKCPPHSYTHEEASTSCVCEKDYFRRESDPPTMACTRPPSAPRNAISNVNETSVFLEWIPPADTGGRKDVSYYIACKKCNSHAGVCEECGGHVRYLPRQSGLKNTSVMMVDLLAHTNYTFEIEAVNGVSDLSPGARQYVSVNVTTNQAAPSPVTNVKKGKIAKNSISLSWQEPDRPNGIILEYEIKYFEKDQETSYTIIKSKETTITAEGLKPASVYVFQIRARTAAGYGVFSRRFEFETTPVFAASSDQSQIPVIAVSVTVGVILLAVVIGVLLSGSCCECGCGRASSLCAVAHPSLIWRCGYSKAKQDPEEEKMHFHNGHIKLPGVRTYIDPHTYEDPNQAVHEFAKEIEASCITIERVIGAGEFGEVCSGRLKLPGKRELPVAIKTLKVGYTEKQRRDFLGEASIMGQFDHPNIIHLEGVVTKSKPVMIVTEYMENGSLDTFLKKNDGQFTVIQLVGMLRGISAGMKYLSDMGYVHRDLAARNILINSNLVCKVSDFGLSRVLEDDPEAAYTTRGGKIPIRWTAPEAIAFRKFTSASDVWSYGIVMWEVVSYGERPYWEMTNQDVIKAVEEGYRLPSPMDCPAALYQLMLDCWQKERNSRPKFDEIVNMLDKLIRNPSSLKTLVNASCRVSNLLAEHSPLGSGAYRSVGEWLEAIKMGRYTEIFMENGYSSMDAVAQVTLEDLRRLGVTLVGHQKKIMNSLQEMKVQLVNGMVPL
E3 ubiquitin-protein ligase TRIM33 (Homo sapiens), sequence (Q9UPN9 whole entry): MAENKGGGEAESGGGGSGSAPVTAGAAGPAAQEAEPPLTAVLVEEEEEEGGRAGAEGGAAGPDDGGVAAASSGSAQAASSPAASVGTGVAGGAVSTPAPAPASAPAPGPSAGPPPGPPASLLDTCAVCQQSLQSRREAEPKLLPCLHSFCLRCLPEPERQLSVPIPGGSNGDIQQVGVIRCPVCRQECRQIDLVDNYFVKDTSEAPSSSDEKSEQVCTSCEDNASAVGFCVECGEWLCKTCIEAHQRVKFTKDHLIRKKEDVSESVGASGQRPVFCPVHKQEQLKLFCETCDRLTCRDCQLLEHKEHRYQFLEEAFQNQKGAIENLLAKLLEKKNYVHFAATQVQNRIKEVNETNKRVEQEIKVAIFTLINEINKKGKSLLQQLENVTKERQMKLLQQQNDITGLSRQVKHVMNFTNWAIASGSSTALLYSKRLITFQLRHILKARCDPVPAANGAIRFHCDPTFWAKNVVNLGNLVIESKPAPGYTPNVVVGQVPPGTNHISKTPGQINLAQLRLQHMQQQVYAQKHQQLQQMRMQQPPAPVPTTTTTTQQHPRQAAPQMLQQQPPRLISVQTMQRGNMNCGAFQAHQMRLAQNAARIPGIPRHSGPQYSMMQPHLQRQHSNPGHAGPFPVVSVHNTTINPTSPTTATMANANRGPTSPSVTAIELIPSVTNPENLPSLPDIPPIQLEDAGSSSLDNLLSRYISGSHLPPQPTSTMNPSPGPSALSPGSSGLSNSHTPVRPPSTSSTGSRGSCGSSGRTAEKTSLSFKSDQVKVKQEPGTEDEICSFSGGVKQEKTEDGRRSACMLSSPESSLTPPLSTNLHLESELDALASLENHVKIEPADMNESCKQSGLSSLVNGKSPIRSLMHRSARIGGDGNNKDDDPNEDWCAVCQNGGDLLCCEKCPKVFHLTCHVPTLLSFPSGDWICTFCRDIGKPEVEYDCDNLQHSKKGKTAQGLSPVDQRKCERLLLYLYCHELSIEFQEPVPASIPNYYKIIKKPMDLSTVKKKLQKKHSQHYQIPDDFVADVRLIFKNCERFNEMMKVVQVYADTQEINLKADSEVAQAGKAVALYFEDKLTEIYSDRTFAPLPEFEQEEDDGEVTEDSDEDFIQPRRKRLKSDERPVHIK
Fibroblast growth factor receptor 1, sequence (P11362 22-822 limits assumed): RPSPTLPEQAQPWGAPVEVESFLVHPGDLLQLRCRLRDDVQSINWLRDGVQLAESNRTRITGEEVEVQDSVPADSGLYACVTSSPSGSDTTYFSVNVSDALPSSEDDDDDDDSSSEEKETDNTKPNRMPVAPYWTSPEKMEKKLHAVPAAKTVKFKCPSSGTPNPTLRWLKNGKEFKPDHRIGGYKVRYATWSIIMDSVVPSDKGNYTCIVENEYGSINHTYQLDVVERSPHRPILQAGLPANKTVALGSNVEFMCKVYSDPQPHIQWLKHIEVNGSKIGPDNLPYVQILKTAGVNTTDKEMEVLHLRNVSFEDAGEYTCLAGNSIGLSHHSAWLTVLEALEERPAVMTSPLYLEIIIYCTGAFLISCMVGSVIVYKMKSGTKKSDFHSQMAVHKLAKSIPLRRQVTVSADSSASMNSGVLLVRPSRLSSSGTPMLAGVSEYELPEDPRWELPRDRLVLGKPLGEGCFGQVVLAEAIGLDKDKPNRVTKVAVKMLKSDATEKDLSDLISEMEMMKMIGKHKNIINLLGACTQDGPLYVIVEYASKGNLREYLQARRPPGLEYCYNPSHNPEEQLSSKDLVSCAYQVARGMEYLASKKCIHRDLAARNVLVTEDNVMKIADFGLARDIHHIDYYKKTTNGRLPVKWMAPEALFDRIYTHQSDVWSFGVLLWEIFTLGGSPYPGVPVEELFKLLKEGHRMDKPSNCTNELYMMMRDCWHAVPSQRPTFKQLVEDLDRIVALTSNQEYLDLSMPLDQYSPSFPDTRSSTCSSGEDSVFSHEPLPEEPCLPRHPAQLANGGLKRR

`Cc1cc([C@@H](C)Nc2ccccc2C(=O)O)c2nc(N3CCOCC3)cc(=O)n2c1` [AZD-6482]: the % of control in assay [1] came out at 100%.
With `CCN(CC)CCCCNc1ncc2cc(-c3cc(OC)cc(OC)c3)c(NC(=O)NC(C)(C)C)nc2n1`, in assay [2], the % of control turned out to be 100%.
For the molecule `CCC(=O)N1CCN(c2ccc(-n3c(=O)ccc4cnc5ccc(-c6cnc7ccccc7c6)cc5c43)cc2C(F)(F)F)CC1`, the figures for the % of control in assay [3] and in assay [4] were 9.6% and 86%, respectively.
Consider `Cn1cc(-n2cnc3c(NCc4nc5cc(Cl)c(Cl)cc5[nH]4)nc(N4CCOCC4)nc32)cn1`, for which the % of inhibition in assay [5] is -19.1%.
Take `CNC(=O)Nc1ccc(-c2nc(N3CC4CCC(C3)O4)c3cnn(C4CCC5(CC4)OCCO5)c3n2)cc1`: the % of inhibition in assay [6] stood at 4%.
`CN(C)CCCOc1ccc(-c2cc(NCCCn3cccn3)nc(S(C)(=O)=O)n2)cc1`: the dTM in assay [7] is < 2 K.
